Results from patent US20250268921A1, “OPTHALMIC FORMULATIONS AND USES THEREOF” (TelomEYE Pharmaceutical Corporation, priority 2018, published 2025).
Entries after “also recorded” stand apart in the source; their conditions may differ.

Columns and labels:
[1] = system: telomerase reverse transcriptase (TERT); assay: TERT immunohistochemistry of eye tissues; type: in vivo, rabbit
From the text: This was characterized by weak telomerase activity in the endothelial layer with an expression of limited number of endothelial cells.

[2] = system: cornea endothelial cells; assay: Specular microscopy cornea endothelial cell count, TAED017 eye drops 6 months; type: in vivo, rabbit; settings: for cell count, treatment vs control: 2nd and 5th months
From the text: 16-month-old male New Zealand rabbits were used in the study. […] When determining the starting age of rabbits and the duration of eye drop application (6 months), 16 months was chosen to correspond to adult human age, and the study period of 6 months was modeled as the period in which New Zealand rabbits aged 7.91 years (22.75 days for adult New Zealand rabbits, corresponding to 1 year for human age).
In FIGS. 12-15, data are shown as mean±standard error. The statistical evaluations are based on CD (cornea endothelia cell density) values. All CD values were corrected to the baseline measurement (month 0) of the respective rabbit and this correction was made as a percentage [(CD value/CD baseline value)*100]. GraphPad Prism 8.0.2 software was used for all statistical analyses and visualizations. The treatment of the rabbits at the respective dose was compared between the left (TAED017 treatment) and right (non-treated control) eye, both temporally and time and side dependent. For all analyses, “2-way ANOVA test for repeated measures” was used. For data sets with missing data, this analysis was set as “mixed-effect analysis” by the program. “Tukey” and “sidak” tests were used for posthoc analyses. The p values for these tests are adjusted p values.

[3] = system: human corneal epithelial cells; assay: Morphologic evaluation and cell viability, cornea epithelial cells; type: cell-based
[4] = Rabbit ocular pharmacokinetic model; type: in vivo
Method: At the end of the fifth day, blood, tear, cornea, anterior chamber fluid, iris and lens tissues were collected at 30, 60, 120, 240 and 480 minutes following the last administration of 4 μg/50 μl. […] According to the results of the drug analysis at the 30th minute, the highest drug concentrations of 215.56 ng in the corneal tissue, 4 ng in the anterior chamber and 14.12 ng in the iris were detected individually, proving that the drug passes into the corneal tissue after application to the corneal surface and reaches the intraocular tissues.

[5] = system: 3D organotypic corneal barrier; assay: 3D organotypic corneal barrier passage (LC-MS/MS); type: in vitro ADME; settings: repeated drug administration
[6] = system: human corneal endothelial cells; assay: Morphologic evaluation and cell viability, cornea endothelial cells; type: cell-based
Method: In the morphologic evaluation, the cells at different time periods (1 h, 4 h, 24 h) were observed following different concentrations of drug administration.

[7] = system: telomere length in Corneal Endothelial Cells (CEC); assay: Telomere length of corneal endothelial cells, treated versus untreated eyes; type: in vivo, rabbit; settings: six months treatment
Method: IG. 18 illustrates a graph showing percentage of telomere length increases in treated eyes (L) versus control (untreated eyes, R), with increasing dosages of telomerase activator. […] (Cy3=Fluorescence signal of telomere probe, Hoescht=fluorescence of the nuclei, Average R=Average of the control eye).
To determine the mechanism by which treatment with TAED017 prevents Corneal Endothelial Cell (CEC) attrition, telomere lengths from CECs of both treated and untreated eyes were measured and compared.
We then evaluated whether the observed effect of telomere lengthening in CECs also occurred in other ocular tissues. Rabbit eyes were treated for six months with TAED017, (one eye of each rabbit was treated while the other eye remained untreated, as a control group).

[8] = biological target: T1, telomerase (Homo sapiens, UniProt O14746); assay: Telomerase activity of cornea endothelial and epithelial cells; type: cell-based
T1 construct: telomerase activity was evaluated in cornea endothelial cell HCEC-B4G12; endogenous in cells; host or cells: HCEC-B4G12 (DSMZ ACC 647)

[9] = cornea endothelial and epithelial cells, 48 hours

T1 sequence (O14746 whole entry): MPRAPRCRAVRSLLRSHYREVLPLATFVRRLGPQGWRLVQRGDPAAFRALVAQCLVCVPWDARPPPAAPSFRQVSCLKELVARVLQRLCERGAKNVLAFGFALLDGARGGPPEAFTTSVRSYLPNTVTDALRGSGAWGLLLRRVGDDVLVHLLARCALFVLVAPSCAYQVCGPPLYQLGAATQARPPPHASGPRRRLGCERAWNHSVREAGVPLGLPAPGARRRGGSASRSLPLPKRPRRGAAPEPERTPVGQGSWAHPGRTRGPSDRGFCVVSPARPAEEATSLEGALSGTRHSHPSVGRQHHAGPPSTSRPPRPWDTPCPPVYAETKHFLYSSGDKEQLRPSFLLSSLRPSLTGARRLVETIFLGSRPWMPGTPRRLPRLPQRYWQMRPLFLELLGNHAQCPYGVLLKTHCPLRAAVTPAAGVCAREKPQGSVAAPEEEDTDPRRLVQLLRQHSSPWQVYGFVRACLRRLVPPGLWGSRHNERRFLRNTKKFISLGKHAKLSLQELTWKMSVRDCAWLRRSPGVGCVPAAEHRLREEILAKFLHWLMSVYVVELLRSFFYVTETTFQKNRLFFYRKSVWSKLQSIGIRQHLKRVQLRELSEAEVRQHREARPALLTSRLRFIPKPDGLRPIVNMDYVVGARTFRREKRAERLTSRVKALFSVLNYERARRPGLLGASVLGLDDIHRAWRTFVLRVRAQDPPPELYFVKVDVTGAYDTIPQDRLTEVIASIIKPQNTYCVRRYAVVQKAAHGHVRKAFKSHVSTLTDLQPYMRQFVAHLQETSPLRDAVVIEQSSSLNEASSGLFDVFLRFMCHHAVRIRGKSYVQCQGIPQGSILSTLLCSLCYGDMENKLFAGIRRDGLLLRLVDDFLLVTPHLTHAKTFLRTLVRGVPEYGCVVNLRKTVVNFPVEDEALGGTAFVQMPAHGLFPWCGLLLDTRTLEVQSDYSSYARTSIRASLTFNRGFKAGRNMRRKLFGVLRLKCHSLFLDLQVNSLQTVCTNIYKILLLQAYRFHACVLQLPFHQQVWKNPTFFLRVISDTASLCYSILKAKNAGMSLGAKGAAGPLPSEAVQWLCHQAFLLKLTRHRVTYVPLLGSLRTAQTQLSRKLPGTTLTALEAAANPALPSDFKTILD

In the case of `CC(C)(O)[C@@H]1CC[C@](C)([C@H]2[C@@H](O)C[C@@]3(C)[C@@H]4C[C@H](O)[C@H]5C(C)(C)[C@@H](O)CC[C@@]56C[C@@]46CC[C@]23C)O1` [TAED017, Cycloastragenol], the “TERT immunoreactivity in cornea and iris, rank among dose groups” value ([1]; 80 μg/ml) is reported as “lowest Tert immunoreactivity; also recorded: lowest levels”, the “TERT immunostaining in the ciliary processes of iris tissue” value ([1]; 80 μg/ml) is reported as “Prominent and dense tert antigen immunostaining” and the “TERT staining in corneal endothelial cells” value ([1]; 160 μg and 240 μg/ml) is reported as “continuous layer staining”. For the same compound, the “TERT immunostaining in the ciliar processes” value ([1]; 160 μg/ml and 240 μg/ml) was “diffuse and very intense immunopositivity”, the “TERT immunoreactivity in cornea and iris, rank among dose groups” value ([1]; 240 μg/ml) was “highest reactivity; also recorded: highest levels” and the “TERT expression in cornea and iris, treated left eyes vs untreated” value ([1]; 80-240 μg/ml eye drops) was “significantly higher expression; also recorded: significantly elevated”. For the same compound, the “TERT activity in the iris and choroidea vs untreated” value ([1]; treatment groups) was “significantly higher”, the “cell count, difference between months in the treated eye” value ([2]; 4 μg/50 μl) was “no significant difference between the times” and the “cell count, overall comparison treated left vs untreated right eye” value (shortened to “cell count … vs untreated right eye”) ([2]; 4 μg/50 μl twice a day, two way ANOVA) was “no statistically significant difference”. The “cell count, treatment vs control” value ([2]; 4 μg/50 μl) was “no statistically significant difference”, the “cell count, treatment vs control” value ([2]; 8 μg/50 μl) was “no difference” and the “cell count … vs untreated right eye” value ([2]; 8 μg/50 μl, mixed-effects analysis) was “statistically significant difference”. For the same compound, the “cell count, difference between months in the treated eye” value ([2]; 12 μg/50 μl) was “statistically significant difference between the 2nd and 6th month”, the “cell count, treatment vs control” value ([2]; 12 μg/50 μl) was “no difference” and the “cell count … vs untreated right eye” value ([2]; 12 μg/50 μl, mixed-effects analysis) was “statistically significant difference”. The “concentration of first degenerative changes” value ([3]; after 24 hours) was 320 µM, the IC50 ([3]; cornea epithelial cells, read-out: IC50 dose (cell viability assays)) was 740 µM and the “concentrations without morphological degenerative changes (safe)” value ([3]; epithelial cells) was no more than 160 μM. For the same compound, the “Tmax, all eye tissues” value ([4]; 4 μg/50 μl twice a day 5 days, after last administration) was 30 min, the “drug concentration in tears” value ([4]; 30 and 60 minutes) was no more than 3 ng and the “highest drug concentration, anterior chamber” value ([4]; 30th minute, 4 μg/50 μl) was 4 ng. For the same compound, the “highest drug concentration, corneal tissue” value ([4]; 30th minute, 4 μg/50 μl) was 215.56 ng, the “highest drug concentration, iris” value ([4]; 30th minute, 4 μg/50 μl) was 14.12 ng and the “highest level of drug absorbed to the corneal surface” value ([4]; proportion of applied drug) was 5.39%. For the same compound, the “proportion of the drug that passed into the eye, iris tissue” value ([4]; proportion of applied drug) was 0.35%, the “amount crossing the corneal barrier, highest” value ([5]; 48th hour) was 1.35% and the “amount crossing the corneal barrier, highest” value ([5]; 72nd hour) was 1.89%. For the same compound, the morphologic change ([6]; 40 μM and 80 μM, up to 24 hours) was “no significant changes”, the “apoptotic cells in 20× microscope field” value ([6]; 320 μM, 640 μM and 960 μM, after 1 h and 4 h) was 1-5 and the morphologic change ([6]; 320 μM, 640 μM and 960 μM, as early as 5 minutes) was “cell-cell connections were disrupted and the cells became round”. For the same compound, the IC50 ([6]; cornea endothelial cells, read-out: IC50 dose (cell viability assays)) was 220 µM, the “doses that appear safe” value ([6]; corneal endothelial cells, in vitro) was no more than 80 µM and the cell damage ([6]; doses above 80 μM, prolonged drug exposure) was “significant apoptosis and lysis”. The “apoptosis in HCECs” value ([6]; high concentrations (e.g. 160 μM and 320 μM)) was “significantly induces apoptosis”, the “CEC telomere length, treated vs untreated eyes” value [7] was “significant increase; also recorded: longer than those from untreated eyes” and the “concentrations at which telomerase activity reached its highest level” value [8, 9] was 20 μM, 40 μM and 100 μM. For the same compound, the “starting concentration of telomerase activity increase” value [8, 9] was 2 µM, the “telomerase activity after 100 μM concentration” value [8, 9] was “no higher telomerase activity” and the “TAED017 activity, epithelial versus endothelial cells” value ([8]; human corneal epithelial cells vs HCEC B4-G12) was “higher in corneal epithelial cells”. The “starting concentration of telomerase activity increase” value ([8]; printed in brackets after 2 μM) was 100 ng/mL.
